Data from PubChem BioAssay AID330 (DTP/NCI, 2004).
Values joined by “and” are separate entries in the source; they are usually repeats but may differ in a detail not shown here. Equal values may be shown once. Inconclusive results and toxic doses are left out.

Test system: P388 leukemia ip, CD2F1 mice, survival T/C
Assay: NCI In Vivo Anticancer Drug Screen. Data for tumor model P388 Leukemia (intraperitoneal) in CD2F1 (CDF1) mice
Conditions: endpoint: median survival time, higher = longer survival
Method in brief: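 Mice carrying the transplanted tumor received test compound or vehicle. Survival was recorded in each group, and the value is the treated-group measurement divided by that of the vehicle-treated control group.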

[1] = dose: 6.25 mg/kg/injection, schedule: Q01DX009 (ip), vehicle: saline with Tween-80
[2] = dose: 12.5 mg/kg/injection, schedule: Q01DX009 (ip), vehicle: saline with Tween-80
[3] = dose: 25.0 mg/kg/injection, schedule: Q01DX009 (ip), vehicle: saline with Tween-80
[4] = dose: 50.0 mg/kg/injection, schedule: Q01DX009 (ip), vehicle: saline with Tween-80
[5] = dose: 50.0 mg/kg/injection, schedule: Q01DX005 (ip), vehicle: saline with Tween-80
[6] = dose: 100.0 mg/kg/injection, schedule: Q01DX005 (ip), vehicle: saline with Tween-80
[7] = dose: 200.0 mg/kg/injection, schedule: Q01DX005 (ip), vehicle: saline with Tween-80
[8] = dose: 100.0 mg/kg/injection, schedule: Q04DX003 (ip), vehicle: saline with Tween-80
[9] = dose: 200.0 mg/kg/injection, schedule: Q04DX003 (ip), vehicle: saline with Tween-80
[10] = dose: 400.0 mg/kg/injection, schedule: Q04DX003 (ip), vehicle: saline with Tween-80
[11] = dose: 25.0 mg/kg/injection, schedule: Q01DX001 (ip), vehicle: saline with Tween-80
[12] = dose: 50.0 mg/kg/injection, schedule: Q01DX001 (ip), vehicle: saline with Tween-80
[13] = dose: 50.0 mg/kg/injection, schedule: Q01DX009 (ip), vehicle: Klucel (hydroxypropylcellulose) (HPC)
[14] = dose: 50.0 mg/kg/injection, schedule: Q01DX005 (ip), vehicle: Klucel (hydroxypropylcellulose) (HPC)
[15] = dose: 100.0 mg/kg/injection, schedule: Q01DX005 (ip), vehicle: Klucel (hydroxypropylcellulose) (HPC)
[16] = dose: 200.0 mg/kg/injection, schedule: Q01DX005 (ip), vehicle: Klucel (hydroxypropylcellulose) (HPC)
[17] = dose: 100.0 mg/kg/injection, schedule: Q01DX001 (ip), vehicle: saline with Tween-80
[18] = dose: 60.0 mg/kg/injection, schedule: Q01DX005 (ip), vehicle: Klucel (hydroxypropylcellulose) (HPC)
[19] = dose: 120.0 mg/kg/injection, schedule: Q01DX005 (ip), vehicle: Klucel (hydroxypropylcellulose) (HPC)

With O=C1C=C(Sc2ccc3ccccc3c2)C(=O)c2ccccc21 the T/C (dose: 3.13 mg/kg/injection, schedule: Q01DX009 (ip), vehicle: saline with Tween-80) was 101 % of control, the T/C [1] was 105 % of control and the T/C [2] was 104 % of control. For the same molecule, the T/C [3] was 95 % of control and the T/C [4] was 104 % of control.
For C[N+](C)(C)[N-]C(=N)c1ccccc1, the T/C (dose: 25.0 mg/kg/injection, schedule: Q01DX001 (ip), vehicle: suspension in saline) was 102 % of control, the T/C (dose: 50.0 mg/kg/injection, schedule: Q01DX001 (ip), vehicle: suspension in saline) was 104 % of control and the T/C (dose: 100.0 mg/kg/injection, schedule: Q01DX001 (ip), vehicle: suspension in saline) was 99 % of control and 110 % of control.
For CSC1=N[N+]2=C(C)c3ccccc3O[B-]2(c2ccccc2)S1 (centres undefined), the T/C [5] was 96 % of control, the T/C [6] was 92 % of control and the T/C [7] was 87 % of control.
For Cc1cc(NC(=O)Nc2cccc(C3=NCCN3)c2)ccc1NC(=O)Nc1cccc(C2=NCCN2)c1, the T/C [8] was 108 % of control, the T/C [9] was 108 % of control and the T/C [10] was 120 % of control.
In the case of NC(N)=N/N=C1\C/C(=N\N=C(N)N)c2ccccc21, the T/C [1] is reported as 99 % of control, the T/C [2] is reported as 97 % of control and the T/C [11] is reported as 107 % of control. For the same molecule, the T/C [3] was 91 % of control and the T/C [12] was 100 % of control.
With Clc1ncnc2c1ncn2C1CCCCO1 (centres undefined) the T/C (dose: 50.0 mg/kg/injection, schedule: Q04DX003 (ip), vehicle: saline with Tween-80) was 104 % of control, the T/C (dose: 100.0 mg/kg/injection, schedule: Q01DX009 (ip), vehicle: other) was 95 % of control and the T/C [8] was 100 % of control. The T/C (dose: 200.0 mg/kg/injection, schedule: Q01DX009 (ip), vehicle: other) was 95 % of control, the T/C [9] was 100 % of control and the T/C [10] was 100 % of control.
For CC1C[P+](c2ccccc2)(c2ccccc2)Cc2ccccc21 (centres undefined), the T/C (dose: 6.25 mg/kg/injection, schedule: Q01DX001 (ip), vehicle: saline) was 101 % of control and 105 % of control and 108 % of control and the T/C (dose: 12.5 mg/kg/injection, schedule: Q01DX001 (ip), vehicle: saline) was 101 % of control and 117 % of control.
For N=C(N)N=Nc1cc(O)c(NN=C(N)N)cc1O, the T/C (dose: 1.56 mg/kg/injection, schedule: Q01DX005 (ip), vehicle: saline with Tween-80) was 102 % of control, the T/C (dose: 3.13 mg/kg/injection, schedule: Q01DX005 (ip), vehicle: saline with Tween-80) was 99 % of control and the T/C (dose: 6.25 mg/kg/injection, schedule: Q01DX005 (ip), vehicle: saline with Tween-80) was 102 % of control.
With COc1ccc(CS(=O)(=O)c2cnc(=O)[nH]c2N)cc1OC the T/C (dose: 100.0 mg/kg/injection, schedule: Q04DX002 (ip), vehicle: saline) was 93 % of control, the T/C (dose: 200.0 mg/kg/injection, schedule: Q04DX002 (ip), vehicle: saline) was 101 % of control and the T/C (dose: 400.0 mg/kg/injection, schedule: Q04DX002 (ip), vehicle: saline) was 93 % of control.
With CCCCC(CC)(CCC)CCN (centres undefined) the T/C (dose: 6.25 mg/kg/injection, schedule: Q01DX009 (ip), vehicle: suspension in saline) was 104 % of control, the T/C (dose: 12.5 mg/kg/injection, schedule: Q01DX009 (ip), vehicle: suspension in saline) was 107 % of control and the T/C (dose: 25.0 mg/kg/injection, schedule: Q01DX009 (ip), vehicle: suspension in saline) was 102 % of control.
In the case of Cc1cccc(NC(=O)CS)n1, the T/C (dose: 25.0 mg/kg/injection, schedule: Q01DX009 (ip), vehicle: Klucel (hydroxypropylcellulose) (HPC)) is reported as 98 % of control and the T/C [13] is reported as 95 % of control.
In the case of C[Si](C)(C)c1cnc(N)[nH]c1=O, the T/C [3] is reported as 115 % of control, the T/C [4] is reported as 120 % of control and the T/C (dose: 100.0 mg/kg/injection, schedule: Q01DX009 (ip), vehicle: saline with Tween-80) is reported as 120 % of control.
With COc1ccc(-c2cc(-c3ccc(OC)cc3)nc(-c3ccc(OC)cc3)c2)cc1 the T/C [14] was 98 % of control, the T/C [15] was 94 % of control and the T/C [16] was 89 % of control.
For COc1cc(CSc2ccccc2)cc(OC)c1N, the T/C [14] was 95 % of control, the T/C [15] was 100 % of control and the T/C [16] was 99 % of control.
For CC(=O)OC1CC2C3(C)CCC4C(C)(C)CCCC4(C)C3CC(O)C2(C)C2C1=COC2OC(C)=O (centres undefined), the T/C (dose: 15.0 mg/kg/injection, schedule: Q01DX005 (ip), vehicle: Klucel (hydroxypropylcellulose) (HPC)) was 102 % of control and the T/C (dose: 30.0 mg/kg/injection, schedule: Q01DX005 (ip), vehicle: Klucel (hydroxypropylcellulose) (HPC)) was 120 % of control.
In the case of CSCC(NP1(=O)SC(NN=C(C)C)=NC1(C)C)C(=O)O (centres undefined), the T/C (dose: 60.0 mg/kg/injection, schedule: Q01DX005 (ip), vehicle: saline) is reported as 106 % of control and the T/C (dose: 120.0 mg/kg/injection, schedule: Q01DX005 (ip), vehicle: saline) is reported as 107 % of control.
For CSC(=S)c1c(C)cccc1C, the T/C [8] was 110 % of control, the T/C [9] was 100 % of control and the T/C [10] was 113 % of control.
In the case of CC(C)COc1cccc2[oH+]c(C(=O)[O-])cc(=O)c12.CC(C)COc1cccc2[oH+]c(C(=O)[O-])cc(=O)c12.[Cu+2], the T/C (dose: 12.5 mg/kg/injection, schedule: Q04DX002 (ip), vehicle: saline with Tween-80) is reported as 104 % of control, the T/C (dose: 25.0 mg/kg/injection, schedule: Q04DX002 (ip), vehicle: saline with Tween-80) is reported as 95 % of control and the T/C (dose: 50.0 mg/kg/injection, schedule: Q04DX002 (ip), vehicle: saline with Tween-80) is reported as 94 % of control.
O=C(N/N=C/c1cc(Cl)cc(Cl)c1[O-])c1ccccc1.O=C(N/N=C/c1cc(Cl)cc(Cl)c1[O-])c1ccccc1.[Cu+2] was tested, and the T/C [17] was 94 % of control, the T/C (dose: 200.0 mg/kg/injection, schedule: Q01DX001 (ip), vehicle: saline with Tween-80) was 92 % of control and the T/C (dose: 400.0 mg/kg/injection, schedule: Q01DX001 (ip), vehicle: saline with Tween-80) was 104 % of control.
For CCN1C[C@]2(COC)[C@H](O)C[C@H](OC)[C@]34C1[C@H]([C@H](OC)[C@H]23)[C@]1(OC(C)=O)[C@H]2[C@@H](OC(=O)c3ccccc3)[C@](O)(C[C@H]24)[C@@H](OC)[C@@H]1O, the T/C (dose: 0.01 mg/kg/injection, schedule: Q01DX009 (ip), vehicle: saline) was 113 % of control and 88 % of control.
For Fc1ccc2nc3ccccc3c(SCCCCCSc3c4ccccc4nc4ccc(F)cc34)c2c1, the T/C [18] was 94 % of control and the T/C [19] was 90 % of control.
For CCOC(=O)C1CCCCC12OCCO2 (centres undefined), the T/C (dose: 50.0 mg/kg/injection, schedule: Q01DX005 (ip), vehicle: saline) was 95 % of control, the T/C (dose: 100.0 mg/kg/injection, schedule: Q01DX005 (ip), vehicle: saline) was 96 % of control and the T/C (dose: 200.0 mg/kg/injection, schedule: Q01DX005 (ip), vehicle: saline) was 95 % of control.
With O=[N+]([O-])C1=NOCC1 the T/C (dose: 50.0 mg/kg/injection, schedule: Q01DX005 (ip), vehicle: suspension in saline) was 95 % of control and the T/C (dose: 100.0 mg/kg/injection, schedule: Q01DX005 (ip), vehicle: suspension in saline) was 95 % of control.
In the case of CC(C)(C)COc1ccc2c(c1)C1=NC2=NC2=NC(=NC3=NC(=NC4=NC(=N1)c1ccc(OCC(C)(C)C)cc14)c1ccc(OCC(C)(C)C)cc13)c1ccc(OCC(C)(C)C)cc12, the T/C [18] is reported as 99 % of control, the T/C [19] is reported as 88 % of control and the T/C (dose: 240.0 mg/kg/injection, schedule: Q01DX005 (ip), vehicle: Klucel (hydroxypropylcellulose) (HPC)) is reported as 89 % of control.
With c1ccc2c(c1)-c1ccccc1C1NC21 (centres undefined) the T/C (dose: 12.5 mg/kg/injection, schedule: Q01DX001 (ip), vehicle: saline with Tween-80) was 99 % of control and 110 % of control, the T/C [11] was 105 % of control and 110 % of control and 123 % of control and the T/C [12] was 113 % of control. For the same molecule, the T/C [5] was 112 % of control, the T/C [17] was 113 % of control and the T/C [6] was 110 % of control. The T/C [7] was 119 % of control.
COc1ccc(-c2cncnc2N)cc1OC was tested, and the T/C [13] was 95 % of control, the T/C (dose: 100.0 mg/kg/injection, schedule: Q01DX009 (ip), vehicle: Klucel (hydroxypropylcellulose) (HPC)) was 97 % of control and the T/C (dose: 200.0 mg/kg/injection, schedule: Q01DX009 (ip), vehicle: Klucel (hydroxypropylcellulose) (HPC)) was 89 % of control.
For COc1ccc(C(SCC(N)C(=O)O)(c2ccccc2)c2ccc(OC)cc2)cc1 (centres undefined), the T/C (dose: 33.0 mg/kg/injection, schedule: Q04DX003 (ip), vehicle: saline) was 185 % of control, the T/C (dose: 50.0 mg/kg/injection, schedule: Q04DX003 (ip), vehicle: saline) was 165 % of control and the T/C (dose: 75.0 mg/kg/injection, schedule: Q04DX003 (ip), vehicle: saline) was 90 % of control.
